Source: patent US20110039762A1, “TARGETED ANTIMICROBIAL MOIETIES” (C3 JIAN, INC., priority 2009, published 2011)
“Also recorded” adds a separate entry of the source.

Tests used:
[1] = system: B. subtilis; experiment: Kill or inhibit growth/proliferation; morphology, biofilm and growth disruption (Tables 5, 6); assay type: cell-based, Bacillus subtilis; parameters: key: A: Peptide aggregates; B: Less hyphal formation; Clumps; Diffuse clumps and small polyps; F: Diffuse growth; H: Thin; I: Growth inhibition; Microcolony formation; Rippled; Small polyps; Thick; W: Halo formation on top, microlonies on bottom; also: test concentration or dose not given here
[2] = system: S. pneumoniae; experiment: as above; assay type: cell-based, Streptococcus pneumoniae; parameters: key: A: Peptide aggregates; B: Less hyphal formation; Clumps; Diffuse clumps and small polyps; F: Diffuse growth; H: Thin; I: Growth inhibition; Microcolony formation; Rippled; Small polyps; Thick; W: Halo formation on top, microlonies on bottom; also: test concentration or dose not given here
[3] = system: microorganisms; experiment: Peptides having multiple activities (targeting/binding, antimicrobial, growth or phenotype altering)
Text: In certain embodiments, peptides described herein can have multiple activities. Thus for example, a peptide can have both binding/targeting activity and antimicrobial activity. Such peptides can be used, e.g., in a chimeric construct, for any or all of these properties. Thus, for example, a peptide designated “B” in Table 8 can be used as a targeting peptide. If it is also designated G or M it can also be used for antimicrobial activity.

[4] = system: microorganisms (e.g., bacteria, yeasts, fungi); experiment: Targeting peptide binding to target microorganisms (Table 3); settings: preferably 1x PBS; for Target(s) (microorganisms bound by the targeting peptide): peptide binding in aqueous buffers varied by peptide solubility
[5] = system: C. jejuni; experiment: Kill or inhibit growth/proliferation; morphology, biofilm and growth disruption (Tables 5, 6); assay type: cell-based, Campylobacter jejuni; parameters: key: A: Peptide aggregates; B: Less hyphal formation; Clumps; Diffuse clumps and small polyps; F: Diffuse growth; H: Thin; I: Growth inhibition; Microcolony formation; Rippled; Small polyps; Thick; W: Halo formation on top, microlonies on bottom; also: test concentration or dose not given here
[6] = system: S. epidermidis; experiment: as above; assay type: cell-based, Staphylococcus epidermidis; parameters: key: A: Peptide aggregates; B: Less hyphal formation; Clumps; Diffuse clumps and small polyps; F: Diffuse growth; H: Thin; I: Growth inhibition; Microcolony formation; Rippled; Small polyps; Thick; W: Halo formation on top, microlonies on bottom; also: test concentration or dose not given here
[7] = system: MRSA; experiment: as above; assay type: cell-based, Methicillin-resistant Staphylococcus aureus; parameters: key: A: Peptide aggregates; B: Less hyphal formation; Clumps; Diffuse clumps and small polyps; F: Diffuse growth; H: Thin; I: Growth inhibition; Microcolony formation; Rippled; Small polyps; Thick; W: Halo formation on top, microlonies on bottom; also: test concentration or dose not given here
[8] = microorganism the targeting peptide binds, binding in aqueous buffers varied by peptide solubility
[9] = microorganism(s) the targeting peptide binds, binding in aqueous buffers depending on peptide solubility
[10] = microorganism(s) the targeting peptide binds, peptide binding conducted in aqueous buffers varied by peptide solubility

| Substance | Organism, effect [1] | Activities [3] | Organism, effect [6] | further results |
| --- | --- | --- | --- | --- |
| PF-002: peptide having multiple activities (chain 1 NDDAQ; chain 2 NDDAQ; Peptide with targeting and/or antimicrobial activity) | B. subtilis (R) | G B |  | Organism, effect [2]: S. pneumoniae (H); Target(s) [4, 8]: S. epidermidis; also recorded: P. mirabilis; also recorded: C. albicans; also recorded: C. jeikeium; also recorded: C. jejuni |
| PF-008: peptide having multiple activities (chain 1 MIEIGSIAYLNGGSKKYNHILNQENR; chain 2 MIEIGSIAYLNGGSKKYNHILNQENR; Peptide with targeting and/or antimicrobial activity) | B. subtilis (D) | G B |  | Organism, effect [5]: C. jejuni (R); Target(s) [4, 8]: S. epidermidis and M. luteus and MRSA and C. jejuni |
| PF-069: peptide having multiple activities (FDPVPLKKDKSASKHSHKHNH; Peptide with targeting and/or antimicrobial activity) | B. subtilis (D) | G B |  | Organism, effect [5]: C. jejuni (R); Target(s) [4, 8]: E. faecalis; also recorded: C. jejuni |
| PF-292: peptide having multiple activities (SFVSTTVRLIFEESKRYKF; Peptide with targeting and/or antimicrobial activity) | B. subtilis (C) | G B | S. epidermidis (C) | Target(s) [4, 9]: S. epidermidis; also recorded: B. subtilis; also recorded: B. fragilis |
| PF-296 (GAFGMPSIKTNTICGEKGKFISACDAWLSNLK; Peptide with targeting and/or antimicrobial activity) | B. subtilis (C) |  | S. epidermidis (C) |  |
| PF-297: peptide having multiple activities (ISKGIDDIVYVINKILSIGNIFKIIKRK; Peptide with targeting and/or antimicrobial activity) | B. subtilis (C) | G B | S. epidermidis (C) | Target(s) [4, 9]: S. epidermidis; also recorded: B. subtilis; also recorded: B. fragilis |
| PF-301: peptide having multiple activities (GIVLIGLKLIPLLANVLN; Peptide with targeting and/or antimicrobial activity) | B. subtilis (C) | G B | S. epidermidis (C) | Target(s) [4, 9]: C. difficile |
| PF-318 (MGRHLWNPSYFVATVSENTEEQIRKYINNQKKQVK; Peptide with targeting and/or antimicrobial activity) | B. subtilis (C) |  | S. epidermidis (C) |  |
| PF-335 (AAYPIEDWSDWYEDFFIMLSNI; Peptide with targeting and/or antimicrobial activity) | B. subtilis (C) |  | S. epidermidis (C) |  |
| PF-339 (KKIDILINKYMYLSK; Peptide with targeting and/or antimicrobial activity) | B. subtilis (C) |  | S. epidermidis (C) |  |
| PF-342 (AFSGVYKTLIVYTRRK; Peptide with targeting and/or antimicrobial activity) | B. subtilis (C) |  | S. epidermidis (C) |  |
| PF-549: peptide having multiple activities (chain 1 TGIGPIARPIEHGLDS; chain 2 TGIGPIARPIEHGLDS; Peptide with targeting and/or antimicrobial activity) | B. subtilis (D) | G B |  | Organism, effect [7]: MRSA (C); Target(s) [4, 10]: E. coli; also recorded: C. albicans; also recorded: S. pneumoniae; also recorded: C. jeikeium |
| PF-552: peptide having multiple activities (chain 1 ELDKADAALGPAKNLAPLDVINRS; chain 2 ELDKADAALGPAKNLAPLDVINRS; Peptide with targeting and/or antimicrobial activity) | B. subtilis (D) | G B |  | Target(s) [4, 10]: S. pneumoniae |
| PF-554: peptide having multiple activities (chain 1 AKNFLTRTAEEIGEQAVREGNINGP; chain 2 AKNFLTRTAEEIGEQAVREGNINGP; Peptide with targeting and/or antimicrobial activity) | B. subtilis (D) | G B |  | Target(s) [4, 10]: S. pneumoniae |
| PF-557: peptide having multiple activities (chain 1 AANKAREQAAAEAKRKAEEQAR; chain 2 AANKAREQAAAEAKRKAEEQAR; Peptide with targeting and/or antimicrobial activity) | B. subtilis (D) | G B |  | Target(s) [4, 10]: S. pneumoniae |
| PF-559: peptide having multiple activities (chain 1 SRPGKPGGVSIDVSRDRQDILSNYP; chain 2 SRPGKPGGVSIDVSRDRQDILSNYP; Peptide with targeting and/or antimicrobial activity) | B. subtilis (C) | G B |  | Organism, effect [5]: C. jejuni (A); Target(s) [4, 10]: S. epidermidis; also recorded: M. luteus; also recorded: C. albicans; also recorded: C. jeikeium; also recorded: C. jejuni |
| PF-561 (ESLEADVQAELDTEAAKYPALPASF; Peptide with targeting and/or antimicrobial activity) | B. subtilis (D) |  |  | Organism, effect [7]: MRSA (M) |
| PF-565 (RAEAEAQRQAEADAKRKAEEAARL; Peptide with targeting and/or antimicrobial activity) | B. subtilis (D) |  |  | Organism, effect [7]: MRSA (C) |
| PF-569: peptide having multiple activities (chain 1 KSKISEYTEKEFLEFVEDIYTNNK; chain 2 KSKISEYTEKEFLEFVEDIYTNNK; Peptide with targeting and/or antimicrobial activity) | B. subtilis (D) | G B |  | Target(s) [4, 10]: M. luteus; also recorded: P. mirabilis; also recorded: S. pneumoniae; also recorded: E. faecalis; also recorded: C. jeikeium |
| PF-572: peptide having multiple activities (chain 1 WRASKGLPGFKAG; chain 2 WRASKGLPGFKAG; Peptide with targeting and/or antimicrobial activity) | B. subtilis (D) | G B |  | Organism, effect [2]: S. pneumoniae (R); Target(s) [4, 10]: S. epidermidis; also recorded: M. luteus; also recorded: E. coli; also recorded: S. pneumoniae; also recorded: C. jeikeium |
| PF-655: peptide having multiple activities (chain 1 DAPCFDDQFGDLKCQMC; chain 2 DAPCFDDQFGDLKCQMC; Peptide with targeting and/or antimicrobial activity) |  | G B |  | Organism, effect (morphology, biofilm and growth disruption) [1]: B. subtilis (H); Organism, effect (morphology, biofilm and growth disruption) [6]: S. epidermidis (R); Organism, effect (morphology, biofilm and growth disruption) [7]: MRSA (M); Organism, effect (morphology, biofilm and growth disruption) [2]: S. pneumoniae (H); Target(s) (microorganisms bound by the targeting peptide) [4]: M. smegmatis |
| PF-659 (chain 1 TVIST; chain 2 TVIST; Peptide with targeting and/or antimicrobial activity) |  |  |  | Organism, effect (morphology, biofilm and growth disruption) [1]: B. subtilis (H); Organism, effect (morphology, biofilm and growth disruption) [6]: S. epidermidis (M); Organism, effect (morphology, biofilm and growth disruption) [7]: MRSA (R); Organism, effect (morphology, biofilm and growth disruption) [2]: S. pneumoniae (C); Target(s) (microorganisms bound by the targeting peptide) [4]: Mycobacteria spp |
| PF-670 (chain 1 TVIVAPMHSGV; chain 2 TVIVAPMHSGV; Peptide with targeting and/or antimicrobial activity) |  |  |  | Organism, effect (morphology, biofilm and growth disruption) [1]: B. subtilis (H); Organism, effect (morphology, biofilm and growth disruption) [2]: S. pneumoniae (H) |
| SIGSMIGMYSFRHKTKHIKFTFGIPFILFLQFLLVYFYILK [PF-319] | B. subtilis (C) | G B | S. epidermidis (C) | Target(s) [4, 9]: S. epidermidis; also recorded: B. subtilis; also recorded: C. difficile |
